How the values were obtained:
[1] = Acute toxicity, oral administration; set-up: species or system RFVL type mice; details: mouse, in vivo
eye [2] = test: Eye irritation test (Draize method, evaluated by method of Kay and Calandra); assay type: in vivo, male Japanese rabbit; set-up: key: Draize irritation scores per Kay–Calandra method, mean of 4 rabbits
Protocol: The irritation to the eyes caused by relatively highly concentrated solutions of the compounds of the invention was determined by the Draize method [J. H. Draize et al. J. Pharmacol. Exp. Ther., 82, 377 (1944)] and evaluated by the method of Kay and Calandra [J. H. Kay and J. C. Calandra, J. Soc. Cosmet. Chem., 13, 281 (1962)].
The test solution employed in the present experiment was a simple solution of 10% or 20% by weight of the test compound dissolved in distilled water for injections and adjusted to pH 7 to 8 as required.
Specifically, a male Japanese rabbit of body weight 2.5-3.0 kg was placed in a pillory to fix its head. A single dose of 0.1 ml of the test solution was instilled into its right eye. The symptoms experienced by the anterior portion of the right eye were observed over a period of seven days and the irritation observed was scored. The results are shown in Table 2, in each case averaged over the four rabbits in each test group.

eye [3] = details: cited from earlier work
[4] = result in words; cited from earlier work

SMILES | Average irritation score, average (eye [2]; 10% solution, 0.1 ml, 1 hour) | Average irritation score, conjunctiva (eye [2]; 10% solution, 0.1 ml, 1 hour) | Average irritation score, cornea (eye [2]; 10% solution, 0.1 ml, 1 hour) | Average irritation score, iris (eye [2]; 10% solution, 0.1 ml, 1 hour) | Average irritation score, average (eye [2]; 10% solution, 0.1 ml, 24 hours) | Average irritation score, conjunctiva (eye [2]; 10% solution, 0.1 ml, 24 hours) | Average irritation score, cornea (eye [2]; 10% solution, 0.1 ml, 24 hours) | Average irritation score, iris (eye [2]; 10% solution, 0.1 ml, 24 hours) | Average irritation score, average (eye [2]; 10% solution, 0.1 ml, 48 hours) | Average irritation score, conjunctiva (eye [2]; 10% solution, 0.1 ml, 48 hours) | Average irritation score, cornea (eye [2]; 10% solution, 0.1 ml, 48 hours) | Average irritation score, iris (eye [2]; 10% solution, 0.1 ml, 48 hours) | Average irritation score, average (eye [2]; 10% solution, 0.1 ml, 72 hours) | Average irritation score, conjunctiva (eye [2]; 10% solution, 0.1 ml, 72 hours) | Average irritation score, cornea (eye [2]; 10% solution, 0.1 ml, 72 hours) | Average irritation score, iris (eye [2]; 10% solution, 0.1 ml, 72 hours) | Average irritation score, average (eye [2]; 10% solution, 0.1 ml, 96 hours) | Average irritation score, conjunctiva (eye [2]; 10% solution, 0.1 ml, 96 hours) | Average irritation score, cornea (eye [2]; 10% solution, 0.1 ml, 96 hours) | Average irritation score, iris (eye [2]; 10% solution, 0.1 ml, 96 hours) | other results
CC(C(=O)[O-])c1ccc(CC2CCCC2=O)cc1.[Na+] (stereo not shown) | – | – | – | – | – | – | – | – | – | – | – | – | – | – | – | – | – | – | – | – | LD50 ([1]; female mice): 3150 mg/kg; LD50 ([1]; male mice): 3030 mg/kg; Average irritation score, cornea (eye [2]; rabbit, in vivo): 0; Average irritation score, iris (eye [2]; rabbit, in vivo): 0
CC(C(=O)[O-])c1ccc(C[C@@H]2CCC[C@H]2O)cc1.[Na+] (relative stereo) | 1.3 | 1.3 | 0 | 0 | 0 | 0 | 0 | 0 | 0 | 0 | 0 | 0 | 0 | 0 | 0 | 0 | 0 | 0 | 0 | 0 | Average irritation score, average (eye [2]; 10% solution, 0.1 ml, 7 days): 0; Average irritation score, conjunctiva (eye [2]; 10% solution, 0.1 ml, 7 days): 0; Average irritation score, cornea (eye [2]; 10% solution, 0.1 ml, 7 days): 0; Average irritation score, iris (eye [2]; 10% solution, 0.1 ml, 7 days): 0
CC(C(=O)[O-])c1ccc(C=C2CCCCC2=O)cc1.[Na+] (stereo not shown) [Compound B, sodium 2-[4-(2-oxocyclohexylidenemethyl)phenyl]propionate] | 1.3 | 1.3 | 0 | 0 | 0 | 0 | 0 | 0 | 0 | 0 | 0 | 0 | 0 | 0 | 0 | 0 | 0 | 0 | 0 | 0 | Average irritation score, average (eye [2]; 10% solution, 0.1 ml, 7 days): 0; Average irritation score, conjunctiva (eye [2]; 10% solution, 0.1 ml, 7 days): 0; Average irritation score, cornea (eye [2]; 10% solution, 0.1 ml, 7 days): 0; Average irritation score, iris (eye [2]; 10% solution, 0.1 ml, 7 days): 0
CC(C)Cc1ccc(C(C)C(=O)O)cc1 (stereo not shown) [Ibuprofen, ibuprofen] | – | – | – | – | – | – | – | – | – | – | – | – | – | – | – | – | – | – | – | – | adverse effects upon the eye reported in the literature (eye [3]): a variety of visual defects, including toxic amblyopia
COC(=O)c1ccccc1O [methyl salicylate] | – | – | – | – | – | – | – | – | – | – | – | – | – | – | – | – | – | – | – | – | toxicity for internal administration [4]: too toxic for internal administration
CCCCC1C(=O)N(c2ccccc2)N(c2ccccc2)C1=O [phenylbutazone] | – | – | – | – | – | – | – | – | – | – | – | – | – | – | – | – | – | – | – | – | adverse effects upon the eye reported in the literature (eye [3]): conjunctivitis, toxic amblyopia, Stevens-Johnson syndrome, adhesion of lids to eyeballs, gross scarring of lids, corneal ulceration and scarring, vascularisation of the cornea, loss of vision and possible retinal haemorrhage

From patent US4599360A, “Ophthalmic anti-inflammatory agents” (Sankyo Company Limited, priority 1983, dated 1986)
